The values below come from patent publication US7405235B2, “Transcription factor modulating compounds and methods of use thereof” (Paratek Pharmaceuticals, Inc., priority 2001, dated 2008).

The target in the assay is MarA (Escherichia coli, UniProt P0ACH5). Kind of assay: MarA-activated selective marker (ccdB) cell survival assay, Example 2. More on the design: key: * indicates good inhibition of MarA; ** indicates very good inhibition of MarA. Conditions: inhibition of MarA: cell survival under conditions of MarA expression (ccdB under MarA-activated promoter). It is filed as cell-based. The source says: In the absence of Mar A, the expression of the selective marker would be silent. For example, in the case of regulation of the cytotoxic gene ccdB, the gene would be silent and the cells would survive. Synthesis of MarA from an inducible plasmid in a suitable host would result in the activation of the MarA responsive activatable promoter and expression of the selective marker. In the case of ccdB, the gene would be expressed and result in cell death. Compounds that inhibit MarA would be identified as those that permit cell survival under conditions of MarA expression.
Chain of MarA (P0ACH5 whole entry, looked up): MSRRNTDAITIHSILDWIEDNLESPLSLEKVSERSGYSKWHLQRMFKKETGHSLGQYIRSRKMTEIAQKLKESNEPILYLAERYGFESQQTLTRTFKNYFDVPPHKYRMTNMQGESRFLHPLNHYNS
In the absence of MarA, the expression of the selective marker is silent and cells survive. Synthesis of MarA from an inducible plasmid in a bacterial or yeast cell leads to the activation of the inaA promoter, expression of ccdB, and subsequently results in cell death. Compounds that inhibit MarA are those that permit cell survival under conditions of MarA expression. In Table 4, * indicates good inhibition of MarA and ** indicates very good inhibition of MarA.

As to `COc1ccc2c(=O)cc(-c3ccccc3)oc2c1` [BA, 7-methoxy-2-phenyl-4H-chromen-4-one], the MarA inhibition class entry was “*”. As to `O=C1C(=C2NC(c3ccccn3)C3C(=O)N(c4ccccc4)C(=O)C23)C(=O)c2ccccc21` (stereo not shown) [BB, 4-(1,3-dioxo-1,3-dihydro-2H-inden-2-yliden)-2-phenyl-6-(2-pyridinyl)tetrahydro pyrrolo[3,4-c]pyrrole-1,3(2H,3aH)-dione], the MarA inhibition class entry is recorded as “*”.

For the compound `CCOC(=O)C(C(N)=O)C1(O)OC(c2ccc(C)cc2)=CC1=O` (stereo not shown) [BC, 2-(2-Hydroxy-3-oxo-5-p-tolyl-2,3-dihydro-furan-2-yl)-malonamic acid ethylester], the MarA inhibition class entry is “*”. The value for `O=C(O)COn1c(-c2ccccc2)nc2ccc([N+](=O)[O-])cc21` [BD, 2-[(6-nitro-2-phenyl-1H-1,3-benzimidazol-1-yl)oxy]acetic acid] was “*”.

Take `O=c1cc(-c2ccc(F)cc2)oc2ccccc12` [BE, 2-(4-fluorophenyl)-4H-chromen-4-one]: the MarA inhibition class entry was “*”. The same measure for `COn1c(-c2ccc(C)cc2)nc2ncccc21` [BF, 1-methoxy-2-(4-methylphenyl)-1H-imidazo[4,5-b]pyridine]: “*”. For `O=c1cc(-c2ccc(O)cc2)oc2ccccc12` [BG, 2-(4-hydroxyphenyl)-4H-chromen-4-one], the MarA inhibition class entry was “*”.

Turning to `CSc1nnc2c(n1)OC(c1ccc([N+](=O)[O-])o1)Nc1ccccc1-2` (stereo not shown) [C, 3-Methylsulfanyl-6-(5-nitro-furan-2-yl)-6,7-dihydro-5-oxa-1,2,4,7-tetraaza-dibenzo[a,c]cycloheptene], the MarA inhibition class entry was “*”. `CSc1nnc2c(n1)OC(c1ccc(-c3ccc([N+](=O)[O-])cc3)o1)Nc1ccccc1-2` (stereo not shown) [D, 3-Methylsulfanyl-6-[5-(4-nitro-phenyl)-furan-2-yl]-6,7-dihydro-5-oxa-1,2,4,7-tetraaza-dibenzo[a,c]cycloheptene]: the MarA inhibition class result is given as “*”. Turning to `CCSc1nnc2c(n1)OC(c1ccc(O)c(O)c1)Nc1ccccc1-2` (stereo not shown) [E, 4-(3-Ethylsulfanyl-6,7-dihydro-5-oxa-1,2,4,7-tetraza-dibenzo[a,c]cyclohepten-6-yl)-benzene-1,2-diol], the MarA inhibition class entry was “*”. The same measure for `CCCSc1nnc2c(n1)OC(c1ccc(OCc3ccccc3)cc1)Nc1ccccc1-2` (stereo not shown) [F, 6-(4-Benzyloxy-phenyl)-3-propylsulfanyl-6,7-dihydro-5-oxa-1,2,4,7-tetraaza-dibenzo[a,c]cycloheptene]: “**”. Turning to `CCCCSc1nnc2c(n1)OC(c1ccc(OC)cc1OC)Nc1ccccc1-2` (stereo not shown) [H, 3-Butylsulfanyl-6-(2,4-dimeethoxy-phenyl)-6,7-dihydro-5-oxa-1,2,4,7-tetraaza-dibenzo[a,c]cycloheptene], the MarA inhibition class result is listed as “*”. The same measure for `C=CCOc1ccc(C2Nc3ccccc3-c3nnc(SCCCC)nc3O2)cc1` (stereo not shown) [I, 6-(4-Allyloxy-phenyl)-3-butylsulfanyl-6,7-dihydro-5-oxa-1,2,4,7-tetraaza-dibenzo[a,c]cycloheptene]: “**”. Regarding `CCCCSc1nnc2c(n1)OC(c1ccc(OCC)cc1)Nc1ccccc1-2` (stereo not shown) [J, 3-Butylsulfanyl-6-(4-ethoxy-phenyl)-6,7-dihydro-5-oxa-1,2,4,7-tetraaza-dibenzo[a,c]cycloheptene], the MarA inhibition class result is on record as “*”. Regarding `CCCSc1nnc2c(n1)OC(c1ccc(OC)cc1)Nc1ccccc1-2` (stereo not shown) [K, 6-(4-Methoxy-phenyl)-3-propylsulfanyl-6,7-dihydro-5-oxa-1,2,4,7-tetraaza-dibenzo[a,c]cycloheptene], the MarA inhibition class entry is “*”. On to `CCCSc1nnc2c(n1)OC(c1ccc(-c3cccc([N+](=O)[O-])c3)o1)Nc1ccccc1-2` (stereo not shown) [L, 6-[5-(3-Nitro-phenyl)-furan-2-yl]-3-propylsulfanyl-6,7-dihydro-5-oxa-1,2,4,7-tetraaza-dibenzo[a,c]cycloheptane], for which the MarA inhibition class result is “**”.
